Results taken from ChEMBL document CHEMBL1157539, “Thousands of chemical starting points for antimalarial lead identification” (Nature, 2010).

System: Plasmodium falciparum
Assay: GSK_TCMDC: Inhibition of Plasmodium falciparum 3D7 in whole erythrocytes, using parasite LDH activity as an index of growth.
Type: functional, organism-based
Settings: Plasmodium falciparum, 3D7

Row | SMILES | XC50
1 | COc1ccc2c(N/N=C/c3cccc([N+](=O)[O-])c3)ccnc2c1 | 846 nM
2 | CN1CCC(N(Cc2ccc(-c3ccc(C(F)(F)F)cc3)nc2)C(=O)Cn2c(CCc3cccc(F)c3F)cc(=O)c3ccccc32)CC1 | 1100 nM
3 | CC(C)(C)NCc1cc(Nc2ccnc3cc(Cl)ccc23)ccc1F | 30.3 nM
4 | O=C(Nc1ccccc1)Nc1cccc(-c2nn3c(OCC4CCCCN4)cccc3c2-c2ccncc2)c1 (stereo not drawn) | 858 nM
5 | Cc1cccc2nc(-c3cccc(-c4ccc(NC(=O)NC5CC5c5ccccc5)cc4)c3)[nH]c12 (stereo not drawn) | 719 nM
6 | O=c1[nH]ccc2nc(N[C@@H]3CCNC3)nc(Nc3cc(Cl)cc(Cl)c3)c12 | 738 nM
7 | COc1ccc(CN2CCC(Oc3cccc(NC(=O)c4ccc(C(F)(F)F)cc4)c3)CC2)cc1 | 743 nM
8 | Cc1[nH]c(C)c(-c2cc3ccccc3o2)c(=O)c1Cl | 1720 nM
9 | CCCC1N=C(N)N=C(N)N1c1ccc(C)c(C)c1 (stereo not drawn) | 73.6 nM
10 | Cc1ccc(N(CCC(=N)N)Cc2ccccc2)cc1 | 657 nM
11 | COc1cc(C2CCN(CCCCNC(=O)c3ccc(NC(=O)c4cc(C(F)(F)F)cc(C(F)(F)F)c4)cc3)CC2)ccc1OC(C)C | 154 nM
12 | O=C(O)C1Cc2c([nH]c3ccccc23)C(c2ccc(Cl)cc2Cl)N1 (stereo not drawn) | 954 nM
13 | COc1cccc(CNC(=O)c2ccnc(-c3cccc(CN(C)C4CCN(C)CC4)c3)c2)c1 | 834 nM
14 | COc1ccc(Nc2ccnc3cc(-c4ccccn4)ccc23)cc1OC | 31.8 nM
15 | CC(C)(C)c1ccc(CN2CCC(CNC(=O)c3cc(-c4cccc(F)c4)cs3)C2)cc1 (stereo not drawn) | 898 nM
16 | Cc1ccc(C(=O)Nc2ccc(OC3CCN(CCC(C)C)C3)c(Cl)c2)cc1 (stereo not drawn) | 991 nM
17 | COc1ccc2ncc(F)c([C@H](O)CN3CCC(NCc4ccc5c(c4)NC(=O)CO5)CC3)c2c1 | 172 nM
18 | Cc1cccn2c(=O)c3cc(C(=O)NCc4cccnc4)c(=N)n(CCc4ccccc4)c3nc12 | 714 nM
19 | Cc1cc(-c2ccc3c(c2)CCN(CCC2CCC(NC(=O)/C=C/c4cccc(Cl)c4)CC2)CC3)on1 (stereo not drawn) | 589 nM
20 | O=C(NCC1CCC(C(=O)NCCc2ccc(Cl)c(Cl)c2)CC1)c1ccc(O)c(-c2ccc(Cl)c(Cl)c2)c1 (stereo not drawn) | 895 nM
21 | N=C(N)NN=C1C=Cc2cccc3cccc1c23 | 609 nM
22 | O=C(/C=C/c1ccc(Cl)cc1)NCCCCCN1CCCC(C(=O)Nc2cccc(Cl)c2)C1 (stereo not drawn) | 208 nM
23 | c1ccc(CCNCc2ccc(-c3ccc(CNC4CCN(Cc5ccccc5)CC4)cc3)nc2)cc1 | 446 nM
24 | CCCCCCN1CCC(NCc2ccc(OCCN3CCCC3)cc2)CC1 | 719 nM
25 | Cc1ccc(F)c(OCC2CCN(c3ccc(C(=O)NC4CC4)cn3)CC2)c1 | 733 nM

Row | SMILES | XC50
26 | COc1ccc2[nH]ccc(=NN=Cc3ccc(Cl)cc3)c2c1 | 211 nM
27 | COc1ccc(-c2ccc(NC(=O)c3cccc(Cl)c3)cc2)cc1CN1CCN(C)CC1 | 951 nM
28 | C[C@H](Nc1nc(C(Oc2ccccc2)c2ccccc2)nc2[nH]ncc12)c1ccccc1 (stereo partly drawn) | 484 nM
29 | COc1ccc(Cl)cc1NC(=O)Nc1ccnc2ccccc12 | 675 nM
30 | COc1ccc2nc3cc(Cl)ccc3c(NCCN3CCN(C)CC3)c2c1 | 124 nM
31 | COc1cc(OC)cc(-c2nn(-c3ccc([N+](=O)[O-])cc3C#N)c(=S)n2CC2CCCO2)c1 (stereo not drawn) | 852 nM
32 | O=C(Nc1ccccc1)N1CCOC(CCN2CCC(F)(F)CC2)(c2ccc(Cl)c(Cl)c2)C1 (stereo not drawn) | 185 nM
33 | COc1cc2c(cc1CCNCCCCNCCc1cc3c(cc1OC)CCCC3)CCCC2 | 996 nM
34 | O=C(Nc1ccc2[nH]c(-c3ccc4nc(NC(=O)C5CCCCC5)sc4c3)nc2c1)C1CCCCC1 | 612 nM
35 | COc1cc(CNC[C@@H](O)[C@H](Cc2ccccc2)NC(=O)c2cc(OC(C)C)cc(N3CCCCS3(=O)=O)c2)cc(OC)c1 | 590 nM
36 | O=C(Nc1cccc(-c2ccc(-c3nc4cc(C(F)(F)F)ccc4[nH]3)cc2)c1)Nc1ccc(Cl)c(Cl)c1 | 889 nM
37 | Cc1cccc(C)c1N1CCN(C2CCC(NC(=O)/C=C/c3ccccc3)CC2)CC1 (stereo not drawn) | 1180 nM
38 | CCCN(CCC)c1nn2c(=O)c(C(=O)N3CCN(Cc4ccccc4)CC3)cnc2s1 | 999 nM
39 | CCCCCCCc1[nH]c2ccccc2c(=O)c1C | 509 nM
40 | Cn1ncc2c3c(CCN4CCC(NCc5ccc6c(c5)NC(=O)CO6)CC4)c(Cl)cnc3ccc21 | 488 nM
41 | N=C(N)NN=Cc1c2ccccc2c(Cl)c2c(Cl)cccc12 | 878 nM
42 | COc1ccc(OCC(=O)Nc2nc(-c3ccc(OC)cc3)c(C)s2)cc1 | 1950 nM
43 | COc1ccc(C(=O)CCC(=O)N(Cc2ccc(-c3ccc(CNCCc4ccc(S(C)(=O)=O)cc4)cn3)cc2)C2CC3CCC2C3)cc1F (stereo not drawn) | 927 nM
44 | COc1ccc2c(O)c(Br)c(C)nc2c1 | 192 nM
45 | CCOC(=O)N1CCN(CCCCCNc2cc(C)nc(NC(=N)Nc3ccc(Cl)cc3)n2)CC1 | 149 nM
46 | CNC(=O)Cc1ccc(C(=O)Nc2cccc(-c3cccc(-c4nc5cc(C(F)(F)F)ccc5[nH]4)c3)c2)cc1 | 440 nM
47 | OC(CNC1CCCCC1)c1ccc(Cl)c(Cl)c1 (stereo not drawn) | 698 nM
48 | COc1ccc2nccc([C@@H](O)CN3CCC(NC(=O)/C=C/c4c[nH]c5c(C)cccc45)CC3)c2c1 | 135 nM
49 | CO/C(=C\C=C\c1cc2cc(Cl)c(Cl)cc2[nH]1)C(=O)NCCCCN1CCN(c2ccccc2OC)CC1 | 514 nM
50 | CCC(C)Oc1ccc2nc(N)nc(N)c2c1Cl (stereo not drawn) | 177 nM

Row | SMILES | XC50
51 | N#Cc1ccc(/C=C/C(=O)NCCCCCN2CCN(C(=O)Nc3ccc(Cl)c(C(F)(F)F)c3)CC2)cc1 | 780 nM
52 | Cc1cccc2nc(-c3ccc(-c4ccc(NC(=O)NCc5ccccc5)cc4)s3)[nH]c12 | 768 nM
53 | Cc1[nH]c2cc(F)ccc2c1C1=CCN(CCCCC2(C)C(=O)Nc3ccccc32)CC1 (stereo not drawn) | 292 nM
54 | COc1ccc(C2CCN(CCN3CCC(NC(=O)c4ccc(-c5cccc(C(F)(F)F)c5C(F)(F)F)cc4)CC3)CC2)c(OC)c1 | 419 nM
55 | O=C(Nc1ccc(OC2CCN(Cc3ccsc3)C2)c(Cl)c1)c1ccc(F)cc1 (stereo not drawn) | 943 nM
56 | COc1cccc2sc(Nc3nc(-c4ccccn4)cs3)nc12 | 805 nM
57 | CCN(CCO)CCc1cccc(Nc2nccc(-c3c(-c4ccc(NC(=O)C(C)(C)C)cc4)nn4ccccc34)n2)c1 | 714 nM
58 | COc1cc(N)c(Cl)cc1C(=O)NCC1CCN(c2nc(C)cc(C)n2)CC1 | 509 nM
59 | CCOc1ccc(-c2nonc2NC(=O)c2ccco2)cc1OCC | 750 nM
60 | COc1ccc(-n2nc(C)c3c2NC(=O)CC3c2ccccc2OCc2ccccc2F)cc1 (stereo not drawn) | 901 nM
61 | O=C(Nc1cc(Cl)ccc1O)c1ccc(Oc2ccc(C(=O)Nc3cc(Cl)ccc3O)cc2)cc1 | 920 nM
62 | COc1ccccc1Cn1ccnc1SCC(=O)Nc1cc(C(F)(F)F)ccc1Cl | 99.9 nM
63 | CC[C@H]1CN2CC[C@H]1C[C@H]2[C@H](O)c1cc(-c2cccc(C)c2)nc2ccc(OC)cc12 | 163 nM
64 | C=Cc1cc(OC)c2c(c1)c(=O)oc1c2cc(OC)c2c(O)ccc([C@H]3O[C@H]([C@H](C)O)[C@H](O)[C@H]3O)c21 | 794 nM
65 | Cc1cc(=NN=Cc2ccccc2Cl)c2cc(C(F)(F)F)ccc2[nH]1 | 858 nM
66 | FC(F)(F)c1cc(Nc2ncnc3ccc(Br)cc23)ccc1OCc1ccccc1 | 1080 nM
67 | Cc1[nH]c(C)c(-c2cccc(-c3ccc(OC(F)(F)F)cc3)c2)c(=O)c1Br | 410 nM
68 | O=C(Nc1cccc(OCCN2CCCC2)c1)Nc1ccc(Cl)c(Cl)c1 | 775 nM
69 | COc1ccc(CCNCC(O)COc2nccc3c(S(=O)(=O)N4CCCNCC4)cccc23)cc1OC (stereo not drawn) | 269 nM
70 | O=C(NCCCCCN1CCC(c2c[nH]c3ccccc23)CC1)c1ccc(-c2ccccc2)nc1 | 1020 nM
71 | COc1ccc(C(=O)Nc2nonc2-c2ccc(OC)c(OC)c2)cc1Cl | 675 nM
72 | O=c1cnc2ccc(F)cc2n1CCN1CCC(NCc2cc(-c3ccccc3)cs2)CC1 | 863 nM
73 | CCc1cn2c3c(cc(C(=O)N[C@@H](Cc4ccccc4)[C@H](O)CNC(C)(C)c4cccc(OC)c4)cc13)N(C)S(=O)(=O)C2 | 61.7 nM
74 | c1cncc(-c2cc(N3CCc4ccccc4C3)nc(-c3ccncc3)n2)c1 | 40.9 nM
75 | Fc1ccc2c(NN=Cc3ccccc3)ccnc2c1 | 739 nM

Row | SMILES | XC50
76 | COc1cc(C(=O)Nc2cccc(-c3cn4ccc(C)cc4n3)c2)cc(OC)c1OC | 761 nM
77 | N=C(N)NN=Cc1cc2ccccc2c2ccccc12 | 180 nM
78 | CCOc1cc(C)ccc1N1CCN(CCN2CCC(NC(=O)c3ccc(-c4ccc(C#N)cc4)cc3)CC2)CC1 | 1430 nM
79 | COc1cc(Cc2cnc(NCCN3CCNCC3)nc2N)ccc1OCc1ccc(C(F)(F)F)cc1 | 922 nM
80 | CCOC(=O)c1ccc(N2CCN(c3cc(C)ccc3C)CC2)c(NC(=O)Nc2ccc(Cl)c(Cl)c2)c1 | 712 nM
81 | O=C(Nc1cccc(CN2CCCN(CC3CCCCC3)CC2)c1)c1ccc(Cl)c(Cl)c1 | 962 nM
82 | c1ccc2[nH]c(-c3ccc(-c4ccc(CNCC5CCCO5)cc4)s3)nc2c1 (stereo not drawn) | 869 nM
83 | COC(=O)Nc1ccc(-c2ccc(C(=O)NC3CCN(C[C@H](O)c4ccnc5ccc(OC)cc45)CC3)cc2)c(C)c1 | 685 nM
84 | Cn1nccc1C(=O)NCCNCc1cccc(-c2ccc(-c3nc4cc(C(F)(F)F)ccc4[nH]3)cc2)c1 | 122 nM
85 | Oc1c(Cl)cc(Nc2nccc(Nc3ccc(Oc4ccccc4)cc3)n2)cc1Cl | 786 nM
86 | Cc1cc(=NN=Cc2ccccc2)c2cc(F)ccc2[nH]1 | 579 nM
87 | COCCNCc1cccc(-c2cccc(CN(C(=O)Nc3ccccc3)C3CCN(Cc4ccccc4)CC3)c2)c1 | 126 nM
88 | Cc1cc(N(C)C2CCN(C)C2)nc(Nc2ccccc2Cl)n1 (stereo not drawn) | 754 nM
89 | CCCCCN1CCCC(CNS(=O)(=O)c2cccc(C(=O)Nc3ccc(C(F)(F)F)cc3)c2)C1 (stereo not drawn) | 829 nM
90 | CCCNCc1ccc(-c2ccc(CN(CCOC)C(=O)c3cscn3)cc2)nc1 | 178 nM
91 | O=C(/C=C/c1ccc(Cl)c(Cl)c1)NCCCCCN1CCC(CCNC(=O)Cc2ccc(Cl)cc2)CC1 | 1160 nM
92 | CN(c1ccc(NC(=O)Nc2cc(C(C)(C)C)on2)cc1)c1ccnc(NCCN2CCOCC2)n1 | 1120 nM
93 | Cc1ccc(NC(=O)NC2CCN(c3ccnc4cc(Cl)ccc34)CC2)cc1 | 315 nM
94 | N=C(N)NCCCN(Cc1ccccc1)c1ccccc1 | 579 nM
95 | CCNc1cc(C(=O)N[C@@H](Cc2ccc(Cl)cc2)[C@H](O)CNC2CCCCC2)cc(N2CCCCS2(=O)=O)c1 | 150 nM
96 | OCc1ccc(-c2cncc(Nc3cccc(Cl)c3)c2)cc1 | 74.3 nM
97 | Cc1nc(N)nc(N)c1Oc1cccc(Cl)c1 | 871 nM
98 | COC(=O)c1cccc(NC(=O)NC2CCN(c3ccnc(Nc4cc(OC)c(OC)c(OC)c4)n3)C2)c1 (stereo not drawn) | 512 nM
